Source: ChEMBL document CHEMBL1201862, “PubChem BioAssay data set” (2004)
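Exposure lasted 48 hours, with cells grown in 96-well plates and compounds tested at five concentrations. GI50: concentration for 50% inhibition of growth.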 Active and inactive are the calls of the source. Cut-off read from the data, not from the text of the source: active = GI50 up to about 1.1 µM and inactive = higher.

Experiments:
Test in all cases: DTP human tumour cell line panel, 48 h
[1] = system: HCC 2998
[2] = system: K562
[3] = system: HCT-15
[4] = system: SK-MEL-28
[5] = system: ACHN
[6] = system: CAKI-1
[7] = system: OVCAR-8
[8] = system: RXF 393
[9] = system: OVCAR-5
[10] = system: SK-MEL-5
[11] = system: T47D
[12] = system: LOX IMVI
[13] = system: MDA-MB-435
[14] = system: NCI-H23
[15] = system: A498
[16] = system: SF-268
[17] = system: SF-295
[18] = system: OVCAR-3
[19] = system: UACC-62
[20] = system: U-251
[21] = system: SK-MEL-2
[22] = system: HCT-116
[23] = system: SN12C
[24] = system: NCI/ADR-RES
[25] = system: BT-549
[26] = system: NCI-H226
[27] = system: COLO 205
[28] = system: 786-0
[29] = system: PC-3
[30] = system: MDA-MB-231
[31] = system: Hs-578T
[32] = system: SNB-19
[33] = system: UO-31
[34] = system: SF-539
[35] = system: UACC-257
[36] = system: NCI-H460
[37] = system: HOP-92
[38] = system: SW-620
[39] = system: SK-OV-3
[40] = system: DU-145
[41] = system: A549
[42] = system: MOLT-4
[43] = system: M14
[44] = system: MCF7
[45] = system: HOP-62
[46] = system: CCRF-CEM
[47] = system: EKVX
[48] = system: NCI-H522
[49] = system: OVCAR-4
[50] = system: HL-60
[51] = system: HT-29
[52] = system: Malme-3M
[53] = system: SNB-75
[54] = system: IGROV-1
[55] = system: SR
[56] = system: TK-10
[57] = system: KM12
[58] = system: RPMI-8226

For O=C(/C=C/c1ccccc1)CCC1C(=O)NC(=S)NC1=O, the GI50 [1] was > 100 µM (inactive), the GI50 [2] was > 100 µM (inactive) and the GI50 [3] was > 100 µM. For the same compound, the GI50 [4] was > 100 µM (inactive), the GI50 [5] was > 100 µM (inactive) and the GI50 [6] was 26.5 µM (inactive). The GI50 [7] was > 100 µM (inactive), the GI50 [8] was > 100 µM (inactive) and the GI50 [9] was > 100 µM (inactive). For the same compound, the GI50 [10] was > 100 µM (inactive), the GI50 [11] was > 100 µM (inactive) and the GI50 [12] was > 100 µM (inactive). The GI50 [13] was > 100 µM (inactive), the GI50 [14] was > 100 µM (inactive) and the GI50 [15] was > 100 µM (inactive). For the same compound, the GI50 [16] was > 100 µM (inactive), the GI50 [17] was > 100 µM (inactive) and the GI50 [18] was > 100 µM (inactive). For the same compound, the GI50 [19] was > 100 µM (inactive), the GI50 [20] was > 100 µM (inactive) and the GI50 [21] was > 100 µM (inactive). The GI50 [22] was > 100 µM (inactive), the GI50 [23] was > 100 µM (inactive) and the GI50 [24] was > 100 µM (inactive). The GI50 [25] was > 100 µM (inactive), the GI50 [26] was > 100 µM (inactive) and the GI50 [27] was > 100 µM (inactive). For the same compound, the GI50 [28] was > 100 µM (inactive), the GI50 [29] was > 100 µM (inactive) and the GI50 [30] was > 100 µM (inactive). The GI50 [31] was > 100 µM (inactive), the GI50 [32] was > 100 µM (inactive) and the GI50 [33] was > 100 µM (inactive). The GI50 [34] was > 100 µM (inactive), the GI50 [35] was > 100 µM (inactive) and the GI50 [36] was > 100 µM (inactive). For the same compound, the GI50 [37] was > 100 µM (inactive), the GI50 [38] was > 100 µM (inactive) and the GI50 [39] was > 100 µM (inactive). The GI50 [40] was > 100 µM (inactive), the GI50 [41] was > 100 µM (inactive) and the GI50 [42] was > 100 µM (inactive). For the same compound, the GI50 [43] was > 100 µM (inactive).
With CCCCCCC(=O)OC[n+]1ccc(-c2c(COC(=O)NC(C)C)c(COC(=O)NC(C)C)c3n2CCC3)cc1 the GI50 [1] was > 100 µM (inactive), the GI50 [2] was > 100 µM (inactive) and the GI50 [3] was > 100 µM. The GI50 [44] was 45.8 µM (inactive), the GI50 [4] was > 100 µM (inactive) and the GI50 [5] was 41 µM (inactive). For the same compound, the GI50 [6] was 30.8 µM (inactive), the GI50 [7] was > 100 µM (inactive) and the GI50 [45] was > 64.3 µM (inactive). The GI50 [8] was > 65.8 µM (inactive), the GI50 [46] was 24.6 µM (inactive) and the GI50 [9] was > 100 µM (inactive). The GI50 [10] was > 100 µM (inactive), the GI50 [11] was > 100 µM (inactive) and the GI50 [12] was 42.9 µM (inactive). For the same compound, the GI50 [13] was > 100 µM (inactive), the GI50 [47] was > 100 µM (inactive) and the GI50 [14] was 48.9 µM (inactive). The GI50 [48] was 57 µM (inactive), the GI50 [15] was 46.9 µM (inactive) and the GI50 [49] was > 100 µM (inactive). For the same compound, the GI50 [16] was 48.6 µM (inactive), the GI50 [17] was > 75.2 µM (inactive) and the GI50 [50] was 23.3 µM (inactive). For the same compound, the GI50 [18] was > 100 µM (inactive), the GI50 [19] was 37.1 µM (inactive) and the GI50 [20] was > 80.4 µM (inactive). The GI50 [21] was > 100 µM (inactive), the GI50 [51] was > 100 µM (inactive) and the GI50 [22] was > 89.9 µM (inactive). For the same compound, the GI50 [52] was > 64.7 µM (inactive), the GI50 [23] was 49.5 µM (inactive) and the GI50 [24] was > 100 µM (inactive). The GI50 [25] was > 91 µM (inactive), the GI50 [53] was > 68.1 µM (inactive) and the GI50 [26] was > 100 µM (inactive). The GI50 [27] was > 80.9 µM (inactive), the GI50 [28] was 39.6 µM (inactive) and the GI50 [29] was > 90.8 µM (inactive). For the same compound, the GI50 [30] was > 71.3 µM (inactive), the GI50 [31] was > 100 µM (inactive) and the GI50 [32] was > 100 µM (inactive). For the same compound, the GI50 [54] was > 100 µM (inactive), the GI50 [55] was 10 µM (inactive) and the GI50 [33] was > 100 µM (inactive). The GI50 [34] was 45.1 µM (inactive), the GI50 [56] was > 100 µM (inactive) and the GI50 [35] was > 100 µM (inactive). The GI50 [36] was 35.6 µM (inactive), the GI50 [57] was > 100 µM (inactive) and the GI50 [37] was 63.5 µM (inactive). For the same compound, the GI50 [58] was 38.5 µM (inactive), the GI50 [38] was 74.5 µM (inactive) and the GI50 [39] was > 100 µM (inactive). The GI50 [40] was > 82.4 µM (inactive), the GI50 [41] was > 87.7 µM (inactive) and the GI50 [42] was 25.2 µM (inactive). For the same compound, the GI50 [43] was > 87.9 µM (inactive).
For COc1ccc(-c2nc(-c3cc4ccccc4oc3=O)cs2)cc1, the GI50 [1] was 77.8 µM (inactive), the GI50 [2] was > 100 µM (inactive) and the GI50 [3] was > 100 µM. For the same compound, the GI50 [44] was > 100 µM (inactive), the GI50 [4] was > 100 µM (inactive) and the GI50 [5] was 34 µM (inactive). For the same compound, the GI50 [6] was > 100 µM (inactive), the GI50 [7] was 23.2 µM (inactive) and the GI50 [45] was 32 µM (inactive). The GI50 [8] was 85.3 µM (inactive), the GI50 [46] was > 100 µM (inactive) and the GI50 [9] was > 100 µM (inactive). The GI50 [10] was > 100 µM (inactive), the GI50 [11] was > 100 µM (inactive) and the GI50 [12] was > 100 µM (inactive). For the same compound, the GI50 [13] was > 100 µM (inactive), the GI50 [47] was > 100 µM (inactive) and the GI50 [48] was > 100 µM (inactive). For the same compound, the GI50 [49] was > 100 µM (inactive), the GI50 [16] was 61.2 µM (inactive) and the GI50 [17] was > 100 µM (inactive). For the same compound, the GI50 [50] was > 100 µM (inactive), the GI50 [19] was > 100 µM (inactive) and the GI50 [20] was 21.9 µM (inactive). The GI50 [21] was > 100 µM (inactive), the GI50 [51] was 95.9 µM (inactive) and the GI50 [22] was 37.8 µM (inactive). The GI50 [52] was > 100 µM (inactive), the GI50 [23] was 44.5 µM (inactive) and the GI50 [24] was 47.9 µM (inactive). The GI50 [25] was > 100 µM (inactive), the GI50 [53] was 52.2 µM (inactive) and the GI50 [26] was > 100 µM (inactive). The GI50 [27] was > 100 µM (inactive), the GI50 [28] was 31.3 µM (inactive) and the GI50 [29] was > 100 µM (inactive). For the same compound, the GI50 [30] was 20.9 µM (inactive), the GI50 [31] was 40.9 µM (inactive) and the GI50 [32] was 30.1 µM (inactive). For the same compound, the GI50 [54] was 86.1 µM (inactive), the GI50 [55] was > 100 µM (inactive) and the GI50 [33] was 35.7 µM (inactive). For the same compound, the GI50 [34] was 30.9 µM (inactive), the GI50 [56] was 70.6 µM (inactive) and the GI50 [35] was > 100 µM (inactive). The GI50 [36] was 59.2 µM (inactive), the GI50 [57] was > 100 µM (inactive) and the GI50 [37] was 60.8 µM (inactive). The GI50 [58] was > 100 µM (inactive), the GI50 [38] was > 100 µM (inactive) and the GI50 [39] was 29.6 µM (inactive). For the same compound, the GI50 [40] was > 100 µM (inactive), the GI50 [41] was 85.7 µM (inactive) and the GI50 [42] was > 100 µM (inactive). The GI50 [43] was > 100 µM (inactive).
